test system: SKM MYOFIBRIL; assay: SKM myofibril AC1.4 (ATPase, PK/LDH coupled enzyme system); type: biochemical; conditions: screen at pCa=6.5; further: unit not given here

| Compound | SKM MYOFIBRIL AC1.4 (median) |
| --- | --- |
| Cc1cccc(CNc2c(-c3ccccc3O)nc3cc(C)ccn23)c1 [2-(7-methyl-3-{[(3-methylphenyl)methyl]amino}-4-hydroimidazo[1,2-a]pyridin-2-yl)phenol] | 0.9541 |
| Cc1ccc2nc(-c3ccccc3O)c(NCc3cccc(Cl)c3)n2n1 [2-(3-{[(3-chlorophenyl)methyl]amino}-6-methyl-4-hydroimidazo[1,2-e]pyridazin-2-yl)phenol] | 3.5753 |
| Oc1ccccc1-c1nc2cc(Br)ccn2c1NCc1cccc(Cl)c1 [2-(7-bromo-3-{[(3-chlorophenyl)methyl]amino}-4-hydroimidazo[1,2-a]pyridin-2-yl)phenol] | 8.3071 |
| Oc1ccc(-c2nc3ccc(Br)cn3c2NC2CCCCC2)cc1 [4-[6-bromo-3-(cyclohexylamino)-4-hydroimidazo[1,2-a]pyridin-2-yl]phenol] | 12.8016 |
| Cc1ccn2c(NCc3cccc(F)c3)c(-c3ccccc3O)nc2c1 [2-(3-{[(3-fluorophenyl)methyl]amino}-7-methyl-4-hydroimidazo[1,2-a]pyridin-2-yl)phenol] | 1.4096 |
| Cc1ccn2c(NCc3ccccc3)c(-c3ccccc3O)nc2c1 [2-{7-methyl-3-[benzylamino]-4-hydroimidazo[1,2-a]pyridin-2-yl}phenol] | 2.0618 |
| Oc1ccccc1-c1nc2ccccn2c1NC1CCCC1 [2-[3-(cyclopentylamino)-4-hydroimidazo[1,2-a]pyridin-2-yl]phenol] | 11.2917 |
| COC(=O)c1ccn2c(NCc3cccc(Cl)c3)c(-c3ccccc3O)nc2c1 [methyl 3-{[(3-chlorophenyl)methyl]amino}-2-(2-hydroxyphenyl)-4-hydroimidazo[1,2-a]pyridine-7-carboxylate] | 5.1088 |
| Cc1cn2c(NCc3cccc(Cl)c3)c(-c3ccccc3O)nc2cn1 [2-(3-{[(3-chlorophenyl)methyl]amino}-6-methyl-4-hydroimidazo[1,2-a]pyrazin-2-yl)phenol] | 3.6886 |
| Cc1ccc2nc(-c3ccccc3O)c(NCc3cccc(Cl)c3)n2c1 [2-(3-{[(3-chlorophenyl)methyl]amino}-6-methyl-4-hydroimidazo[1,2-a]pyridin-2-yl)phenol] | 1.1197 |
| CN(C)CCNC(=O)c1ccc2nc(-c3ccccc3O)c(NCc3ccc(F)cc3)n2c1 [N-[2-(dimethylamino)ethyl](3-{[(4-fluorophenyl)methyl]amino}-2-(2-hydroxyphenyl)(4-hydroimidazo[1,2-a]pyridin-6-yl))carboxamide] | 4.4632 |
| Oc1ccccc1-c1nc2cnccn2c1NCc1cccs1 [2-{3-[(2-thienylmethyl)amino]-4-hydroimidazo[1,2-a]pyrazin-2-yl}phenol] | 10.6577 |
| Cc1ccn2c(NCc3cccc(Cl)c3)c(-c3ncccc3O)nc2c1 [2-(3-{[(3-chlorophenyl)methyl]amino}-7-methyl-4-hydroimidazo[1,2-a]pyridin-2-yl)pyridin-3-ol] | 36.9847 |
| Cc1ccc(CNc2c(-c3ccccc3O)nc3cc(C)ccn23)cc1 [2-(7-methyl-3-{[(4-methylphenyl)methyl]amino}-4-hydroimidazo[1,2-a]pyridin-2-yl)phenol] | 16.3079 |
| OCc1ccn2c(NCc3cccc(Cl)c3)c(-c3ccccc3O)nc2c1 [2-(3-{[(3-chlorophenyl)methyl]amino}-7-(hydroxymethyl)-4-hydroimidazo[1,2-a]pyridin-2-yl)phenol] | 1.9956 |
| OCc1ccc2nc(-c3ccccc3O)c(NCc3cccc(Cl)c3)n2c1 [2-(3-{[(3-chlorophenyl)methyl]amino}-6-(hydroxymethyl)-4-hydroimidazo[1,2-a]pyridin-2-yl)phenol] | 1.6756 |
| Oc1ccc(-c2nc3ccccn3c2NCc2cccc(F)c2)cc1 [4-(3-{[(3-fluorophenyl)methyl]amino}-4-hydroimidazo[1,2-a]pyridin-2-yl)phenol] | 28.3763 |
| CCCCNc1c(-c2ccc(O)cc2)nc2ccccn12 [4-[3-(butylamino)-4-hydroimidazo[1,2-a]pyridin-2-yl]phenol] | 27.9936 |
| COc1cccc2nc(O)c(-c3nc4cc(C)ccn4c3NCc3cccc(Cl)c3)cc12 [3-(3-{[(3-chlorophenyl)methyl]amino}-7-methyl(4-hydroimidazo[1,2-a]pyridin-2-yl))-5-methoxyquinolin-2-ol] | 2.3608 |
| Cc1ccn2c(NC3CCCCC3)c(-c3ccoc3)nc2c1 [cyclohexyl(2-(3-furyl)-7-methyl(4-hydroimidazo[1,2-a]pyridin-3-yl))amine] | 30.5823 |
| Cc1ccn2c(NCc3ccccc3C)c(-c3ccccc3O)nc2c1 [2-(7-methyl-3-{[(2-methylphenyl)methyl]amino}-4-hydroimidazo[1,2-a]pyridin-2-yl)phenol] | 0.9648 |
| Cc1ccc(-c2nc3ccccn3c2NC2CCCCC2)cc1 [cyclohexyl[2-(4-methylphenyl)(4-hydroimidazo[1,2-a]pyridin-3-yl)]amine] | 25.2334 |

| Compound | SKM MYOFIBRIL AC1.4 (median) |
| --- | --- |
| N#Cc1ccn2c(NC3CCCC3)c(-c3ccc(O)cc3)nc2c1 [3-(cyclopentylamino)-2-(4-hydroxyphenyl)-4-hydroimidazo[1,2-a]pyridine-7-carbonitrile] | 17.9621 |
| Cc1ccn2c(NCC(=O)N3CCCCC3)c(-c3ccccc3O)nc2c1 [2-{[2-(2-hydroxyphenyl)-7-methyl(4-hydroimidazo[1,2-a]pyridin-3-yl)]amino}-1-piperidylethan-1-one] | 40.2086 |
| CCc1ccn2c(NCc3ccc(F)cc3)c(-c3ccccc3O)nc2c1 [2-(7-ethyl-3-{[(4-fluorophenyl)methyl]amino}-4-hydroimidazo[1,2-a]pyridin-2-yl)phenol] | 0.9459 |
| COc1ccc(-c2nc3ccc(C)cn3c2NC2CCCCC2)cc1O [5-[3-(cyclohexylamino)-6-methyl(4-hydroimidazo[1,2-a]pyridin-2-yl)]-2-methoxyphenol] | 6.0251 |
| Cc1ccn2c(NCc3ccc(F)cc3)c(-c3ccccc3O)nc2c1 [2-(3-{[(4-fluorophenyl)methyl]amino}-7-methyl-4-hydroimidazo[1,2-a]pyridin-2-yl)phenol] | 1.1306 |
| O=C(c1ccc2nc(-c3ccccc3O)c(NCc3cccc(Cl)c3)n2c1)N1CCOCC1 [3-{[(3-chlorophenyl)methyl]amino}-2-(2-hydroxyphenyl)(4-hydroimidazo[1,2-a]pyridin-6-yl) morpholin-4-yl ketone] | 24.9925 |
| C[C@H](Nc1c(-c2ccc(O)cc2)nc2ccccn12)c1ccccc1 [4-{3-[((1S)-1-phenylethyl)amino]-4-hydroimidazo[1,2-a]pyridin-2-yl}phenol] | 23.0212 |
| Oc1ccc(-c2nc3ccc(F)cn3c2NC2CCCC2)cc1 [4-[3-(cyclopentylamino)-6-fluoro-4-hydroimidazo[1,2-a]pyridin-2-yl]phenol] | 26.6981 |
| Cc1ccn2c(NCc3ccccc3Cl)c(-c3ccccc3O)nc2c1 [2-(3-{[(2-chlorophenyl)methyl]amino}-7-methyl-4-hydroimidazo[1,2-a]pyridin-2-yl)phenol] | 1.165 |
| Cc1ccc(-c2nc3cc(C)ccn3c2NC2CCCC2)cc1 [cyclopentyl[7-methyl-2-(4-methylphenyl)(4-hydroimidazo[1,2-a]pyridin-3-yl)]amine] | 4.2349 |
| Oc1ccccc1-c1nc2ccc(Cl)cn2c1NCc1ccc(F)cc1 [2-(6-chloro-3-{[(4-fluorophenyl)methyl]amino}-4-hydroimidazo[1,2-a]pyridin-2-yl)phenol] | 3.5116 |
| Cc1cn2c(NCc3cccc(Cl)c3)c(-c3ccccc3O)nc2c(C)n1 [2-(3-{[(3-chlorophenyl)methyl]amino}-6,8-dimethyl-4-hydroimidazo[1,2-a]pyrazin-2-yl)phenol] | 6.4593 |
| COc1ccc(-c2nc3ccccn3c2NC2CCCCC2)cc1 [cyclohexyl[2-(4-methoxyphenyl)(4-hydroimidazo[1,2-a]pyridin-3-yl)]amine] | 16.6703 |
| Cc1ccn2c(NC3CCCC3)c(-c3ccc(O)cc3)nc2c1 [4-[3-(cyclopentylamino)-7-methyl-4-hydroimidazo[1,2-a]pyridin-2-yl]phenol] | 4.685 |
| Cc1ccn2c(NCc3ccccc3F)c(-c3ccccc3O)nc2c1 [2-(3-{[(2-fluorophenyl)methyl]amino}-7-methyl-4-hydroimidazo[1,2-a]pyridin-2-yl)phenol] | 1.0036 |
| Cc1ccn2c(NCc3cccc(Cl)c3)c(-c3ccccc3O)nc2n1 [2-(3-{[(3-chlorophenyl)methyl]amino}-7-methyl-4-hydroimidazo[1,2-a]pyrimidin-2-yl)phenol] | 7.147 |
| Oc1ccc(-c2nc3cc(Cl)ccn3c2NCc2ccc(F)cc2)cc1 [4-(7-chloro-3-{[(4-fluorophenyl)methyl]amino}-4-hydroimidazo[1,2-a]pyridin-2-yl)phenol] | 10.9866 |
| Oc1ccccc1-c1nc2ccc(Br)cn2c1NCc1cccc(Cl)c1 [2-(6-bromo-3-{[(3-chlorophenyl)methyl]amino}-4-hydroimidazo[1,2-a]pyridin-2-yl)phenol] | 5.3855 |
| Oc1ccc(-c2nc3cccc(Br)n3c2NC2CCCCC2)cc1 [4-[5-bromo-3-(cyclohexylamino)-4-hydroimidazo[1,2-a]pyridin-2-yl]phenol] | 21.5453 |
| Oc1ccc(-c2nc3ccc(F)cn3c2NCc2ccc(F)cc2)cc1 [4-(6-fluoro-3-{[(4-fluorophenyl)methyl]amino}-4-hydroimidazo[1,2-a]pyridin-2-yl)phenol] | 26.5123 |
| CN(C)CCNC(=O)c1ccc2nc(-c3ccccc3O)c(NCc3cccc(Cl)c3)n2c1 [N-[2-(dimethylamino)ethyl](3-{[(3-chlorophenyl)methyl]amino}-2-(2-hydroxyphenyl)(4-hydroimidazo[1,2-a]pyridin-6-yl))carboxamide] | 2.2231 |
| Cc1ccc2nc(-c3ccc(O)cc3)c(NC3CCCC3)n2c1 [4-[3-(cyclopentylamino)-6-methyl-4-hydroimidazo[1,2-a]pyridin-2-yl]phenol] | 13.5754 |

Reference: patent US20100173930A1, “Certain Chemical Entities, Compositions and Methods” (priority 2006, published 2010)
